# Experimental data from patent US6906098B2, “Mixed steroidal 1,2,4,5-tetraoxane compounds and methods of making and using thereof” (priority 2002, dated 2005).
# Where “and” joins values, the source holds several entries; their conditions need not be identical. Equal values may be shown once. Read-outs that look alike come from different tables or passages of the source.
# How the values were obtained:
# M. tuberculosis H37Rv = assay: Minimum inhibitory concentration (MIC) in the MABA; assay type: cell-based, Mycobacterium tuberculosis
# Protocol: (§1) The activity of the compounds of the present invention against Mycobacterium tuberculosis was determined using the following assays conducted by the National Institute of Allergy and Infectious Diseases (NIAID) supports a TB drug acquisition and screening program, the TAACF.
# 2. Minimum Inhibitory Concentration (MIC)
# The MIC is defined as the lowest concentration effecting a reduction in fluorescence of 90% relative to controls. Minimum compound requirements: 1.0 mg.
# VERO cells [1] = assay: cells; conditions: Chlorocebus sabaeus, Table 5
# VERO cells [2] = conditions: for IC50: Table 5, VERO cells
# [3] = test system: D6 and W2 P. falciparum clones; assay type: cell-based, Plasmodium falciparum; conditions: for Resistance Index: IC50 (W2)/IC50 (D6) ratio
# [4] = test system: Mycobacterium tuberculosis H37Rv (ATCC 27294); assay: Primary screen, Microplate Alamar Blue Assay (MABA), percent inhibition; assay type: cell-based; conditions: Table 5, Alamar assay, primary screening at 6.25 μg/ml; for inhibition at 6.25 µg/mL: Mycobacterium tuberculosis, read-out: % Inhib
# Protocol: as §1
# To determine the percent inhibition the following assay was conducted. Primary screening was conducted at 6.25 μg/ml (or the molar equivalent of highest molecular weight compound in a given series of congeners) against Mycobacterium tuberculosis H37Rv (ATCC 27294) in BACTEC 12B medium using the Microplate Alamar Blue Assay (MABA). See Collins, L. and S. G. Franzblau. 1997. Microplate alamar blue assay versus BACTEC 460 system for high-throughput screening of compounds against Mycobacterium tuberculosis and Mycobacterium avium. Antimicrob Agents Chemother 41:1004-9, which is herein incorporated by reference.
# Minimum compound requirements: 1.0 mg.
# [5] = test system: Plasmodium falciparum chloroquine-susceptible strain D6; assay: In vitro antimalarial drug susceptibility assay (radiolabeled hypoxanthine incorporation), strain D6; assay type: cell-based; conditions: for Strain D6 IC50: growth inhibition, chloroquine-susceptible strain D6, 66 h incubation; for IC50: Plasmodium falciparum, D6, 66 h, read-out: Strain D6 IC50, growth inhibition, chloroquine-susceptible strain D6, 66 h incubation
# [6] = test system: Plasmodium falciparum chloroquine-resistant strain W2; assay: microbe, parasite or virus in culture; assay type: cell-based; conditions: for Strain W2 IC50: growth inhibition, chloroquine-resistant strain W2, 66 h incubation; for IC50: Plasmodium falciparum, W2, 66 h, read-out: Strain W2 IC50, growth inhibition, chloroquine-resistant strain W2, 66 h incubation
# [7] = Table 5, Alamar assay, M. tuberculosis H37Rv
# [8] = ratio of IC50 in VERO cells to MIC (M. tuberculosis H37Rv)
# [9] = Mycobacterium tuberculosis, H37RV, Table 5, Alamar assay, M. tuberculosis H37Rv, read-out: MIC
smiles,measurement,setting,value
"CCC1CCC2(CC1)OOC1(CC[C@]3(C)C4C[C@H](OC(C)=O)[C@@]5(C)C(CC[C@@H]5C(C)CCC(=O)O)C4[C@H](OC(C)=O)C[C@@H]3C1)OO2 (single isomer, unassigned) [9j/1C39, 7α,12α-Diacetoxy-5β-cholan-24-oic acid-3-spiro-6′-(1′,2′,4′,5′-tetraoxacyclohexane)-3′-spiro-1″-((4″S or R)-ethyl)cyclohexane]",MIC,M. tuberculosis H37Rv; [7],6.25 µg/mL
same,IC50,VERO cells [1],0.95 µg/mL
same,SI (selectivity index),VERO cells [2]; [8],0.15
same,Resistance Index,[3],1.47
same,% Inhib,[4],95%
same,Strain D6 IC50,[5],0.00638 µg/mL
same,Strain W2 IC50,[6],0.00936 µg/mL
"CCC1CCC2(CC1)OOC1(CC[C@]3(C)C4C[C@H](OC(C)=O)[C@@]5(C)C(CC[C@@H]5C(C)CCC(N)=O)C4[C@H](OC(C)=O)C[C@@H]3C1)OO2 (single isomer, unassigned) [25/1C35, 7α,12α-Diacetoxy-5β-cholan-24-amide-3-spiro-6′-(1′,2′,4′,5′-tetraoxacyclohexane)-3′-spiro-1″-((4″R or S)-ethyl)cyclohexane]",MIC,M. tuberculosis H37Rv; [9],3.13 µg/mL
same,IC50,VERO cells [1],4.65 µg/mL
same,SI (selectivity index),VERO cells [2]; [8],1.48
same,Resistance Index,[3],1.27
same,inhibition at 6.25 µg/mL,[4],100%
same,Strain D6 IC50,[5],0.00544 µg/mL
same,IC50,[6],0.00693 µg/mL
"CCC1CCC2(CC1)OOC1(CC[C@]3(C)C4C[C@H](OC(C)=O)[C@@]5(C)C(CC[C@@H]5C(C)CCC(=O)NC)C4[C@H](OC(C)=O)C[C@@H]3C1)OO2 (single isomer, unassigned) [26/1C36, N-Methyl-7α,12α-Diacetoxy-5β-cholan-24-amide-3-spiro-6′-(1′,2′,4′,5′-tetraoxacyclohexane)-3′-spiro-1″-((4″R or S)-ethyl)cyclohexane]",MIC,M. tuberculosis H37Rv; [7],1.56 µg/mL
same,IC50,VERO cells [1],1.83 µg/mL
same,SI (selectivity index),VERO cells [2]; [8],1.17
same,Resistance Index,[3],1.08
same,inhibition at 6.25 µg/mL,[4],99%
same,Strain D6 IC50,[5],0.00477 µg/mL
same,IC50,[6],0.00517 µg/mL
"CCNC(=O)CCC(C)[C@H]1CCC2C3C(C[C@H](OC(C)=O)[C@@]21C)[C@@]1(C)CCC2(C[C@H]1C[C@H]3OC(C)=O)OOC1(CCC(CC)CC1)OO2 (single isomer, unassigned) [27/1C37, N-Ethyl-7α,12α-Diacetoxy-5β-cholan-24-amide-3-spiro-6′-(1′,2′,4′,5′-tetraoxacyclohexane)-3′-spiro-1″-((4″R or S)-ethyl)cyclohexane]",MIC,M. tuberculosis H37Rv; [7],1.56 µg/mL
same,IC50,VERO cells [1],1.91 µg/mL
same,SI (selectivity index),VERO cells [2]; [8],1.22
same,Resistance Index,[3],0.48
same,inhibition at 6.25 µg/mL,[4],96%
same,IC50,[5],0.0134 µg/mL
same,IC50,[6],0.00646 µg/mL
"CCCNC(=O)CCC(C)[C@H]1CCC2C3C(C[C@H](OC(C)=O)[C@@]21C)[C@@]1(C)CCC2(C[C@H]1C[C@H]3OC(C)=O)OOC1(CCC(CC)CC1)OO2 (single isomer, unassigned) [28/1C38, N-(n-Propyl)-7α,12α-Diacetoxy-5β-cholan-24-amide-3-spiro-6′-(1′,2′,4′,5′-tetraoxacyclohexane)-3′-spiro-1″-((4″R or S)-ethyl)cyclohexane]",MIC,M. tuberculosis H37Rv; [9],6.25 µg/mL
same,IC50,VERO cells [1],2.28 µg/mL
same,SI (selectivity index),VERO cells [2]; [8],0.36
same,Resistance Index,[3],0.54
same,% Inhib,[4],92%
same,Strain D6 IC50,[5],0.00576 µg/mL
same,Strain W2 IC50,[6],0.00312 µg/mL
"CCC1CCC2(CC1)OOC1(CC[C@]3(C)C4C[C@H](OC(C)=O)[C@@]5(C)C(CC[C@@H]5C(C)CCC(=O)NC)C4[C@H](OC(C)=O)C[C@@H]3C1)OO2 (single isomer, unassigned) [30/1C41, N-Methyl-7α,12α-Diacetoxy-5β-cholan-24-amide-3-spiro-6′-(1′,2′,4′,5′-tetraoxacyclohexane)-3′-spiro-1″-((4″S or R)-ethyl)cyclohexane]",MIC,M. tuberculosis H37Rv; [7],3.13 µg/mL
same,IC50,VERO cells [2],1.59 µg/mL
same,SI (selectivity index),VERO cells [2]; [8],0.50
same,Resistance Index,[3],0.22
same,% Inhib,[4],99%
same,Strain D6 IC50,[5],0.0185 µg/mL
same,Strain W2 IC50,[6],0.00407 µg/mL
"CC(=O)O[C@H]1CC2C(C3CC[C@H](C(C)CCC(N)=O)[C@]31C)[C@H](OC(C)=O)C[C@@H]1CC3(CC[C@]21C)OOC1(CCCCC1)OO3 (stereo partly drawn) [10/1C19, 7α,12α-Diacetoxy-5β-cholan-24-amide-3-spiro-6′-(1′,2′,4′,5′-tetraoxacyclohexane)-3′-spirocyclohexane]",MIC,M. tuberculosis H37Rv; [9],6.25 µg/mL
same,IC50,VERO cells [1],4.94 µg/mL
same,SI (selectivity index),VERO cells [2]; [8],0.79
same,Resistance Index,[3],0.40
same,inhibition at 6.25 µg/mL,[4],99%
same,IC50,[5],0.00733 µg/mL
same,IC50,[6],0.00294 µg/mL
"COC(=O)CNC(=O)CCC(C)[C@H]1CCC2C3C(C[C@H](OC(C)=O)[C@@]21C)[C@@]1(C)CCC2(C[C@H]1C[C@H]3OC(C)=O)OOC1(CCCCC1)OO2 (stereo partly drawn) [12/1C21, N-(Methyl ethanoate-2-yl)-7α,12α-diacetoxy-5β-cholan-24-amide-3-spiro-6′-(1′,2′,4′,5′-tetraoxacyclohexane)-3′-spirocyclohexane]",MIC,M. tuberculosis H37Rv; [9],6.25 µg/mL
same,IC50,VERO cells [1],5.42 µg/mL
same,SI (selectivity index),VERO cells [2]; [8],0.87
same,Resistance Index,[3],0.49
same,Resistance Index,[3]; listed as 12,ca. 0.5
same,inhibition at 6.25 µg/mL,[4],99%
same,IC50,[5],0.0152 µg/mL
same,IC50,[6],0.00745 µg/mL
"CNC(=O)CCC(C)[C@H]1CCC2C3C(C[C@H](OC(C)=O)[C@@]21C)[C@@]1(C)CCC2(C[C@H]1C[C@H]3OC(C)=O)OOC1(CCCCC1C)OO2 (stereo partly drawn) [14/1C23, N-Methyl-7α,12α-diacetoxy-5β-cholan-24-amide-3-spiro-6′-(1′,2′,4′,5′-tetraoxacyclohexane)-3′-spiro-1″-(2″-methyl)cyclohexane]",MIC,M. tuberculosis H37Rv; [9],3.13 µg/mL
same,IC50,VERO cells [1],5.63 µg/mL
same,SI (selectivity index),VERO cells [2]; [8],1.8
same,Resistance Index,[3],0.64
same,inhibition at 6.25 µg/mL,[4],99%
same,IC50,[5],0.0102 µg/mL
same,IC50,[6],0.00649 µg/mL
"CC(=O)O[C@H]1CC2C(C3CC[C@H](C(C)CCC(N)=O)[C@]31C)[C@H](OC(C)=O)C[C@@H]1CC3(CC[C@]21C)OOC1(CCC(C)CC1)OO3 (stereo partly drawn) [21/1C30, 7α,12α-Diacetoxy-5β-cholan-24-amide-3-spiro-6′-(1′,2′,4′,5′-tetraoxacyclohexane)-3′-spiro-1″-((4″S)-methyl)cyclohexane]",MIC,M. tuberculosis H37Rv; [7],6.25 µg/mL
same,IC50,VERO cells [2],2.43 µg/mL
same,SI (selectivity index),VERO cells [2]; [8],0.39
same,Resistance Index,[3],0.70
same,% Inhib,[4],99%
same,Strain D6 IC50,[5],0.0127 µg/mL
same,Strain W2 IC50,[6],0.00894 µg/mL
"CNC(=O)CCC(C)[C@H]1CCC2C3C(C[C@H](OC(C)=O)[C@@]21C)[C@@]1(C)CCC2(C[C@H]1C[C@H]3OC(C)=O)OOC1(CCC(C)CC1)OO2 (stereo partly drawn) [22/1C31, N-Methyl-7α,12α-diacetoxy-5β-cholan-24-amide-3-spiro-6′-(1′,2′,4′,5′-tetraoxacyclohexane)-3′-spiro-1″-((4″S)-methyl)cyclohexane]",MIC,M. tuberculosis H37Rv; [7],6.25 µg/mL
same,IC50,VERO cells [2],1.83 µg/mL
same,SI (selectivity index),VERO cells [2]; [8],0.29
same,Resistance Index,[3],0.71
same,% Inhib,[4],99%
same,Strain D6 IC50,[5],0.01079 µg/mL
same,Strain W2 IC50,[6],0.00769 µg/mL
"CCNC(=O)CCC(C)[C@H]1CCC2C3C(C[C@H](OC(C)=O)[C@@]21C)[C@@]1(C)CCC2(C[C@H]1C[C@H]3OC(C)=O)OOC1(CCC(C)CC1)OO2 (stereo partly drawn) [23/1C32, N-Ethyl-7α,12α-diacetoxy-5β-cholan-24-amide-3-spiro-6′-(1′,2′,4′,5′-tetraoxacyclohexane)-3′-spiro-1″-((4″S)-methyl)cyclohexane]",MIC,M. tuberculosis H37Rv; [7],>6.25 µg/mL
same,Resistance Index,[3],0.64
same,% Inhib,[4],21%
same,Strain D6 IC50,[5],0.01032 µg/mL
same,Strain W2 IC50,[6],0.00657 µg/mL
"CCCNC(=O)CCC(C)[C@H]1CCC2C3C(C[C@H](OC(C)=O)[C@@]21C)[C@@]1(C)CCC2(C[C@H]1C[C@H]3OC(C)=O)OOC1(CCC(C)CC1)OO2 (stereo partly drawn) [24/1C33, N-(n-Propyl)-7α,12α-diacetoxy-5β-cholan-24-amide-3-spiro-6′-(1′,2′,4′,5′-tetraoxacyclohexane)-3′-spiro-1″-((4″S)-methyl)cyclohexane]",MIC,M. tuberculosis H37Rv; [7],>6.25 µg/mL
same,antimalarial activity in words,"[3]; D6 and W2 clones, Table 2",inactive
same,Resistance Index,[3],0.98
same,% Inhib,[4],0%
same,Strain D6 IC50,[5],0.05741 µg/mL
same,Strain W2 IC50,[6],0.05611 µg/mL
"NNC(=O)c1ccncc1 [Isoniazid, reference compound]",MIC,"M. tuberculosis H37Rv; Mycobacterium tuberculosis, H37RV, Table 3, H37Rv, read-out: MIC",0.05 µg/mL and 0.36 µM
same,MIC,M. tuberculosis H37Rv; [9],0.025 to 0.05 µg/mL
same,IC50,VERO cells [1],> 1000 µg/mL
same,SI (selectivity index),VERO cells [2],"> 40,000"
